According to US8633168B2, “Inhibitors of S-adenosyl-L-methionine decarboxylase” (Genzyme Corporation, priority 2007, dated 2014):

Columns and labels:
CYP2C19 = CYP2C19 (Homo sapiens, UniProt P33261); test: Cytochrome P450 inhibition, CYP2C19
Description: (§1) This cytochrome P450 high throughput IC50 inhibition assay is utilized for screening potential inhibitors of the 5 major human CYP isozyme catalytic activities (CYP3A4, 2D6, 2C9, 2C19, and 1A2).

CYP2D6 = CYP2D6 (Homo sapiens, UniProt P10635); test: Cytochrome P450 inhibition, CYP2D6
Description: as §1

Schistosomes adult = test: Screening against Schistosomes, adult; type: cell-based; settings: Screening Data
[1] = Solubility in phosphate buffer; type: physicochemical; settings: phosphate buffer, aqueous buffer, kinetic from dmso stock; Example 12 chart; pH 7.4
Experimental: A stock solution for each test compound was prepared at 25 mM in DMSO. These were diluted into phosphate buffer and equilibrated for 16 hours at room temperature, and then filtered to remove precipitated compound. The UV absorbance of this equilibrated sample was compared to a single point reference standard.

CYP3A4 = CYP3A4 (Homo sapiens, UniProt P08684); test: Cytochrome P450 inhibition, CYP3A4
Description: as §1

Schistosomes lavae = test: Screening against Schistosomes, larvae; type: cell-based; settings: Screening Data
T. b. brucei = test: Cell-based screening against T. b. brucei; design: species or system Trypanosoma brucei brucei; settings: Screening Data, two values per compound
Experimental: The bloodstream form trypomastigotes of the three strains are maintained according to standard protocols established at STI.
Drug sensitivity assays are performed in sterile 96-well microtiter plates, with or without serial drug dilutions. The highest concentration for the test compounds is 90 μg/ml. Each drug is tested in duplicate. After 72 hours of incubation the plates are inspected microscopically to assure growth of the controls to determine the minimum inhibitory concentration (MIC), i.e., the lowest drug concentration at which no trypanosomes with normal morphology and motility can be seen compared to control wells. Cell viability is measured by Alamar blue staining and IC50 values are calculated.
Active compounds (IC50<0.2 μg/ml) are tested against the Trypanosoma brucei gambiense STIB 930 and the multi-drug resistant T. b. brucei STIB 950 following the same protocol as described above.
This example provides data relating to the biological screening results. MDL 73811 and selected new compounds 1-7 were tested against a variety of cell-based organisms and enzymes and the IC50 measured. In vitro ADME profiles were also obtained. Solubility, permeability, microsomal/hepatocyte stability, cychrome P450 inhibition and plasma protein binding characteristics were probed for each of the compounds. The methodology for these tests are described in previous paragraphs. The results are summarized in the following 2 charts.

CYP2C9 = CYP2C9 (Homo sapiens, UniProt P11712); test: Cytochrome P450 inhibition, CYP2C9
Description: as §1

CYP1A2 = target: T1, CYP1A2 (Homo sapiens, UniProt P05177); test: Cytochrome P450 inhibition, CYP1A2
T1 sequence (P05177 1-516): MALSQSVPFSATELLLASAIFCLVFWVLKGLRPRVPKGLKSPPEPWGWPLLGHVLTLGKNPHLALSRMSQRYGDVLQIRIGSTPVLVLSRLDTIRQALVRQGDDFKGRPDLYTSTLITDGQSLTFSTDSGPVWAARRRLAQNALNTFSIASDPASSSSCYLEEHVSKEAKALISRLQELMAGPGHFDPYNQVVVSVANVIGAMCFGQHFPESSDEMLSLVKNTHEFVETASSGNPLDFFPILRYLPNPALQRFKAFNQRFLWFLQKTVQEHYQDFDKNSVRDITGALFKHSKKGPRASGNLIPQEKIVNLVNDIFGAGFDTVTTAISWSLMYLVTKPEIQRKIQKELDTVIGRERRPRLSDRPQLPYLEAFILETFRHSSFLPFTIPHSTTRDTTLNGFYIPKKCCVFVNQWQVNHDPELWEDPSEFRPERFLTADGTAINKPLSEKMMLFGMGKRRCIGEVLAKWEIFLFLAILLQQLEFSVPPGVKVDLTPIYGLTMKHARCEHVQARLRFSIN
Description: as §1

CYP2D6, sequence (P10635 whole entry): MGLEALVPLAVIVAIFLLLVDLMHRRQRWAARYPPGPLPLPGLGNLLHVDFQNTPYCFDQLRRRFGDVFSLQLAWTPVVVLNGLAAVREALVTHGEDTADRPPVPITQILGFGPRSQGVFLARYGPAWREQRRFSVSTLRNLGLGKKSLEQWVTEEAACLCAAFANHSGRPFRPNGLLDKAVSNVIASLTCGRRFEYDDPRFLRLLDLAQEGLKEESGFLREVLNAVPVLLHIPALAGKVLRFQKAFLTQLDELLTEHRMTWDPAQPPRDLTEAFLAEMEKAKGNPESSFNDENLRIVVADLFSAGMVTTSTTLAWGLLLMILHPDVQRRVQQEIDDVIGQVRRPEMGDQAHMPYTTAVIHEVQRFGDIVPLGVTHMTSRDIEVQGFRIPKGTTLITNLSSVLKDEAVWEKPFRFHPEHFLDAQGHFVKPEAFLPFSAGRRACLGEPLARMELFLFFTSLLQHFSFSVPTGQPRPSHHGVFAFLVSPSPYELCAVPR
CYP2C9, sequence (P11712 whole entry): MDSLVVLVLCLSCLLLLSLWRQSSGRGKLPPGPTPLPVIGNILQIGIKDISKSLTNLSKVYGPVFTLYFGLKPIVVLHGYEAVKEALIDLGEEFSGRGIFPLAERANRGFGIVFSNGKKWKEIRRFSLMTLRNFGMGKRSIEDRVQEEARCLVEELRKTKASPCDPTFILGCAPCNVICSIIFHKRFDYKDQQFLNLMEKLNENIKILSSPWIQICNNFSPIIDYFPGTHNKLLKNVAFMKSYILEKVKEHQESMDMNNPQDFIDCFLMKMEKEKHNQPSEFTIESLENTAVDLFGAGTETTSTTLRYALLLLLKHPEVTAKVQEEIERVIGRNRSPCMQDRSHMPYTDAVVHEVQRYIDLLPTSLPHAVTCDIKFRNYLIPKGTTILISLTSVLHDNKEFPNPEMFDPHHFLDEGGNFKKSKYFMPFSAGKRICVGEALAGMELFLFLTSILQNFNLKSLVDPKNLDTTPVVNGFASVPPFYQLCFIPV
CYP3A4, sequence (P08684 whole entry): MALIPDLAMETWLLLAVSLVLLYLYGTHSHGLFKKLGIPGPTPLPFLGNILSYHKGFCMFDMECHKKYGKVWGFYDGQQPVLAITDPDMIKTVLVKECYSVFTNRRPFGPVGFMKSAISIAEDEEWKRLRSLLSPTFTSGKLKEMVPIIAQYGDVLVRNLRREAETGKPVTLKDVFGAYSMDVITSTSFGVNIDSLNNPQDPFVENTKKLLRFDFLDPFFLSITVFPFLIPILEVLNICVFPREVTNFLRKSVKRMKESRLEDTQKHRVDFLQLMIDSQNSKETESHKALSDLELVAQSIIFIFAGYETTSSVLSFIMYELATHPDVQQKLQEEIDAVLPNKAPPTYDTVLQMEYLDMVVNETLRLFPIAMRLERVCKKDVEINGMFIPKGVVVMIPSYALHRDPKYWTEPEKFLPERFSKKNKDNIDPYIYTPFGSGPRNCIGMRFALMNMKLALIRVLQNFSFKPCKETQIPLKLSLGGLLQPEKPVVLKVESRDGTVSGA
CYP2C19, sequence (P33261 whole entry): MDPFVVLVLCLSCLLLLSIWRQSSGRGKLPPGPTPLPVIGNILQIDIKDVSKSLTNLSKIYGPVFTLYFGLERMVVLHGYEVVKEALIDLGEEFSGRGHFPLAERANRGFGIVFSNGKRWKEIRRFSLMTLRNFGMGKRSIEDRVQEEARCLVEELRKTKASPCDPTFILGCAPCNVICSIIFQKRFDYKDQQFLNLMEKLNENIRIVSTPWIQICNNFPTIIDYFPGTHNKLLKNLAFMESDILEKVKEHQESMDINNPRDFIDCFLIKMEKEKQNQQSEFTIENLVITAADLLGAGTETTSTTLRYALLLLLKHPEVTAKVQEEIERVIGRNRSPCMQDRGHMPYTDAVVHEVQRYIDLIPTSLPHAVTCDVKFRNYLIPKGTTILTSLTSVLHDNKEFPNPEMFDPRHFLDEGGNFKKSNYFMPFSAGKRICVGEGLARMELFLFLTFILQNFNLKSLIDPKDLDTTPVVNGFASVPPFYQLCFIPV

Row | IC50 (CYP2C19) [µM] | IC50 (CYP2D6) [µM] | IC50 (Schistosomes adult) [µM] | solubility at 16 hours [1] [µg/mL] | IC50 (CYP3A4) [µM] | logD (LogD) | IC50 (CYP2C9) [µM] | IC50 (CYP1A2) [µM] | SMILES | IC50 (Schistosomes lavae) [µM] | IC50 (T. b. brucei; Trypanosoma brucei) [µM] | IC50 (T. b. brucei) [µM]
1 | > 5 | > 5 | > 10 | > 49 | > 5 | < 1 | > 5 | > 5 | Cc1nc(N)c2ncn([C@@H]3O[C@H](CN(C)C/C=C\CN)[C@@H](O)[C@H]3O)c2n1 [Compound 5] | > 10 | > 14 | –
2 | > 5 | > 5 | > 10 | > 51 | > 5 | < 1 | > 5 | > 5 | CCc1nc2c(N)ncnc2n1[C@@H]1O[C@H](CN(C)C/C=C\CN)[C@@H](O)[C@H]1O [Compound 6] | > 10 | 1.16 | 0.64
3 | > 5 | > 5 | > 10 | > 52 | > 5 | < 1 | > 5 | > 5 | CCCc1nc2c(N)ncnc2n1[C@@H]1O[C@H](CN(C)C/C=C\CN)[C@@H](O)[C@H]1O [Compound 7] | > 10 | 12.7 | 9.4
